The results in this text go back to ChEMBL document CHEMBL5236580, “Blocking Non-enzymatic Functions by PROTAC-Mediated Targeted Protein Degradation” (J Med Chem, 2022).

A short description of test [1]: Antitumor activity against human MDSC cells xenografted in BALB/c mouse assessed as tumor growth inhibition relative to control. Format: functional, Myeloid-derived suppressor cell.
The target of test [2] is T1, Nicotinamide phosphoribosyltransferase (Homo sapiens, UniProt P43490). As to the kind of experiment: Induction of degradation NAMPT (unknown origin) assessed as maximum degradation relative to control.
Target sequence in this assay (P43490 whole entry, looked up): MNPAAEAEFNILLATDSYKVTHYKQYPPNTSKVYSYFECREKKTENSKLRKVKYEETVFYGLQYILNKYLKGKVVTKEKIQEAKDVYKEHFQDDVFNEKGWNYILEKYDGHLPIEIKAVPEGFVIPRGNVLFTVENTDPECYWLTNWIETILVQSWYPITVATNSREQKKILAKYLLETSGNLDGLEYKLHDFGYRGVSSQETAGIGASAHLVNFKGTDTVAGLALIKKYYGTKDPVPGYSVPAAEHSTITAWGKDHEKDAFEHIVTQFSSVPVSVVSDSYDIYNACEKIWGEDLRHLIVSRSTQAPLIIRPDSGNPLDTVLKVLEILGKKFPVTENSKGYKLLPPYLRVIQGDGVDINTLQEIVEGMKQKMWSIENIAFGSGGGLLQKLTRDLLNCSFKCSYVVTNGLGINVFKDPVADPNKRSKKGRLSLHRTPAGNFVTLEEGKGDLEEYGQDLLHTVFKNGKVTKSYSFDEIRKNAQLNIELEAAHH
Test [3] concerns the target T1, Nicotinamide phosphoribosyltransferase. As to the kind of experiment: Induction of degradation NAMPT (unknown origin).
Target sequence in this assay (P43490 whole entry): as the sequence (P43490 whole entry, looked up) above
For test [4] the target is unchanged. The experiment in a line: Inhibition of NAMPT (unknown origin).
Target sequence in this assay (P43490 whole entry): as the sequence (P43490 whole entry, looked up) above
The target of the next test is T2, Aurora kinase A (Homo sapiens, UniProt O14965).
T2 sequence (O14965 whole entry): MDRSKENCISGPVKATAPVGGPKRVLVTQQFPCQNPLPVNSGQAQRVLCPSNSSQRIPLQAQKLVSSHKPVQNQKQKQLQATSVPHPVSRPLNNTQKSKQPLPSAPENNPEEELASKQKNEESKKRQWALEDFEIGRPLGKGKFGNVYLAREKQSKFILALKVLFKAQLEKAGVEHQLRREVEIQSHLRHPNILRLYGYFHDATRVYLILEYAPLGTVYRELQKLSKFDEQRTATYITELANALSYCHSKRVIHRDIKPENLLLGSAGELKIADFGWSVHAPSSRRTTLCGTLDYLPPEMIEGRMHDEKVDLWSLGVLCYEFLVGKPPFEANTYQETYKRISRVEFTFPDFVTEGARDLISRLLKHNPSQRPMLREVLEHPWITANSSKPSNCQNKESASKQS
As to the kind of experiment: Induction of degradation of AURORA-A in human MV4-11 cells. The test is classed as cell-based.

For test [5], the target named is Peptidyl-prolyl cis-trans isomerase FKBP1A (Homo sapiens, UniProt P62942). As to the kind of experiment: Induction of degradation of FKBP12 (unknown origin).
In test [6] the target is T3, von Hippel-Lindau disease tumor suppressor/Focal adhesion kinase 1 (Mus musculus) (UniProt P34152+P40338). The experiment in a line: In vivo protac activity at VHL/FAK xenografted in CD-1 mouse liver assessed as increased in FAK degradation at 80 mg/kg, sc incubated for 18 hrs relative to control. Format: functional, organism-based.
Test [7] addresses T3, von Hippel-Lindau disease tumor suppressor/Focal adhesion kinase 1 (Mus musculus). The experiment in a line: In vivo protac activity at VHL/FAK xenografted in CD-1 mouse liver assessed as reduct ion in FAK level at 80 mg/kg, sc measured after 96 hrs relative to control. The test is classed as functional, organism-based.
Test [8] addresses T4, Histone-lysine N-methyltransferase EZH2 (Homo sapiens, UniProt Q15910). The experiment in a line: Inhibition of EZH2 (unknown origin).
Target sequence in this assay (Q15910 whole entry): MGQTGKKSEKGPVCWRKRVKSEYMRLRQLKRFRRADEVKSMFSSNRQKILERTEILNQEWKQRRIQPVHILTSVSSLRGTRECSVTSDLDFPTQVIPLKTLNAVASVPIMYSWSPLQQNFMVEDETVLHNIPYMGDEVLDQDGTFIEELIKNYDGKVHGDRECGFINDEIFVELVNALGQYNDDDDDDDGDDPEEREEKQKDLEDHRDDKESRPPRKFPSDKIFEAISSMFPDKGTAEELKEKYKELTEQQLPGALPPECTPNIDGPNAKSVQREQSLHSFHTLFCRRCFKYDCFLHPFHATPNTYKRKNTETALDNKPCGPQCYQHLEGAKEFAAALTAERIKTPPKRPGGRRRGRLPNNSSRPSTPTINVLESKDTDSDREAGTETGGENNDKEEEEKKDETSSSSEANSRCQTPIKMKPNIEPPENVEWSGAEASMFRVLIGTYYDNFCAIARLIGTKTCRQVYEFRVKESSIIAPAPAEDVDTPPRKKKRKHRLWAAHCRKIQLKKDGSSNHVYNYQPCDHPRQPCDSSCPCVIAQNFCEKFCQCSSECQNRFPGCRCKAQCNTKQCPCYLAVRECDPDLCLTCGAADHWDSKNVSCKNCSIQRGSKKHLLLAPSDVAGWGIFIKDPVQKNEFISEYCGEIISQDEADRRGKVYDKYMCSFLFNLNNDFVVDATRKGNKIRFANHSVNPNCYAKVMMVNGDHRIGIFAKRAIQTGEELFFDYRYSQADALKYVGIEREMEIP
Test [9] can be described thus: Growth inhibition of human Triple-negative breast cancer cells. The conditions noted are these: Triple-negative breast cancer cell. Format: functional.
The nature of test [10]: Antiproliferative activity against human MINO cells harbouring p53 mutant. Format: functional, cell-based.
In another test the test system is JeKo-1. The experiment in a line: Antiproliferative activity against human JeKo-1 cells harbouring p53 mutant. Format: functional, cell-based.
Test [11] addresses T4, Histone-lysine N-methyltransferase EZH2. As to the kind of experiment: Induction of degradation of EZH2 in human EOL1 cells assessed as maximum degradation relative to control. The test is classed as cell-based.
Target sequence in this assay (Q15910 whole entry, looked up): as the sequence (Q15910 whole entry) above
Test [12] shares this target. As to the kind of experiment: Induction of degradation of EZH2 in human MV4-11 cells. Format: cell-based.
Target sequence in this assay (Q15910 whole entry): as above
Test [13] has the same target. The experiment in a line: Induction of degradation of EZH2 in human MV4-11 cells assessed as maximum degradation relative to control. Format: cell-based.
Target sequence in this assay (Q15910 whole entry, looked up): as the sequence (Q15910 whole entry) above
Test [14] shares this target. As to the kind of experiment: Induction of degradation of EZH2 in human EOL1 cells. Format: cell-based.
Target sequence in this assay (Q15910 whole entry): as above
For test [15], the target named is Ubiquitin carboxyl-terminal hydrolase 7 (Homo sapiens, UniProt Q93009). As to the kind of experiment: Induction of degradation of USP7 (unknown origin).
The target of test [16] is T4, Histone-lysine N-methyltransferase EZH2. The experiment in a line: Induction of degradation of EZH2 degradation in human MDA-MB-453 cells. Format: cell-based.
Target sequence in this assay (Q15910 whole entry): as above
The nature of test [17]: Antiproliferative activity against human TNBC ductal adenocarcinoma cells assessed as cell growth inhibition. The test is classed as functional. The conditions noted are these: Triple-negative breast cancer cell.
Test [18] is described as follows: Antiproliferative activity against human Triple-negative breast cancer cells assessed as cell growth inhibition. The test is classed as functional.
For test [19], the target named is T5, Focal adhesion kinase 1 (Homo sapiens, UniProt Q05397). As to the kind of experiment: Induction of degradation of Fak in human PC-3 cells. Format: cell-based.
Target sequence in this assay (Q05397 whole entry): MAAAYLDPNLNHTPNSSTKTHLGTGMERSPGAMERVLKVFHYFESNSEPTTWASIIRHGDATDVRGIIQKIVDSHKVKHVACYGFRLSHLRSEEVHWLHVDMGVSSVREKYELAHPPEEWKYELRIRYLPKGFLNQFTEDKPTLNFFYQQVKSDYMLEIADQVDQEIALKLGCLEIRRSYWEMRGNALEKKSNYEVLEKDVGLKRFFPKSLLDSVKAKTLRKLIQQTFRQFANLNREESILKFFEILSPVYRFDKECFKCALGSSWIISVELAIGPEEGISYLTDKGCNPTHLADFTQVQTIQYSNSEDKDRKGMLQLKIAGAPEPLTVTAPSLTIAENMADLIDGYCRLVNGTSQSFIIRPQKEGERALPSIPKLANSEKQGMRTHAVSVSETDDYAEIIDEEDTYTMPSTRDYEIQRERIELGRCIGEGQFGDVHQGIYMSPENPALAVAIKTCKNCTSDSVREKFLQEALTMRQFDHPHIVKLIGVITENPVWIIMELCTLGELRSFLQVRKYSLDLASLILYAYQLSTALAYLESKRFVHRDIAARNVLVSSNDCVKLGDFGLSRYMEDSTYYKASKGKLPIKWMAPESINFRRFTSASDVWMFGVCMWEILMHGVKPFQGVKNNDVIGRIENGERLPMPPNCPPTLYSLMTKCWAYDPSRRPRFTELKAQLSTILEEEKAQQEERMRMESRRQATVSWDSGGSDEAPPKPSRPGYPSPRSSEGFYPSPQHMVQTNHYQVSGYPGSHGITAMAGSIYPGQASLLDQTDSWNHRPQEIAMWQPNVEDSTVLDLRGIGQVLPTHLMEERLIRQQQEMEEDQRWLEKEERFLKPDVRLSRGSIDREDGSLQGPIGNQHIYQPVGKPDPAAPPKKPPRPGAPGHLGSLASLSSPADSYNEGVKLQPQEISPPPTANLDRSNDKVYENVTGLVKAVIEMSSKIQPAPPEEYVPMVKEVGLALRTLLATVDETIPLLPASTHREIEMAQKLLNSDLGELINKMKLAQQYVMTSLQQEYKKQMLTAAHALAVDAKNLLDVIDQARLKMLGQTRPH
Test [20] addresses T5, Focal adhesion kinase 1. The experiment in a line: Induction of degradation of Fak in human PC-3 cells assessed as maximum degradation relative to control. Format: cell-based.
Target sequence in this assay (Q05397 2-1052 limits assumed): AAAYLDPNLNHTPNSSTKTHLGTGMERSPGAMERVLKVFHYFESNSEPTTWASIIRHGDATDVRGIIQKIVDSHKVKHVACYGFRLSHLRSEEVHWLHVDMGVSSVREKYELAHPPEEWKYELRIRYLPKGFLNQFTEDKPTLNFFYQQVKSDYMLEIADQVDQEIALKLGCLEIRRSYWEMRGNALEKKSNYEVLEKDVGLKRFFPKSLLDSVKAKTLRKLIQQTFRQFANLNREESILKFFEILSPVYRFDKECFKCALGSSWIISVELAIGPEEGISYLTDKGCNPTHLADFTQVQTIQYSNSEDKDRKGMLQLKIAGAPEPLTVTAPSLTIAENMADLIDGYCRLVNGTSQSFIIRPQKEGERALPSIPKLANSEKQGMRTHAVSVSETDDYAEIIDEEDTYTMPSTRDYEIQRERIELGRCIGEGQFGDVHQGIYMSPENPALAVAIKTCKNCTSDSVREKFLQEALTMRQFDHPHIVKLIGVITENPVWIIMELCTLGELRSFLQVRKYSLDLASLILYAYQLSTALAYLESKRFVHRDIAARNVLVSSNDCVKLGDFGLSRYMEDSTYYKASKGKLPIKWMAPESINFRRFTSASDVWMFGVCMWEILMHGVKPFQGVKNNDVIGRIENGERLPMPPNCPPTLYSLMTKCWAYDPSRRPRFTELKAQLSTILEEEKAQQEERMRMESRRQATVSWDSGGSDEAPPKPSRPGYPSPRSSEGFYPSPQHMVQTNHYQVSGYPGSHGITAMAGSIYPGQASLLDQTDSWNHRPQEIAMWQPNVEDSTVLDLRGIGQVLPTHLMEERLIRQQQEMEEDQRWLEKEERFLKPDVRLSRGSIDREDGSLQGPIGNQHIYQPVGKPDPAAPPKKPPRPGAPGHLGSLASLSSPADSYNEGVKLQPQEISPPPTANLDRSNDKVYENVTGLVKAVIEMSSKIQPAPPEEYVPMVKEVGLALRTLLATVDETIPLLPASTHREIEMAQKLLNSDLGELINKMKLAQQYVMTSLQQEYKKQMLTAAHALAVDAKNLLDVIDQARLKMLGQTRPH
Test [21] concerns the target Protein cereblon/Protein deacetylase HDAC6 (Homo sapiens, UniProt Q96SW2+Q9UBN7). The experiment in a line: PROTAC activity at CRBN/HDAC6 in human K562 cells assessed as degradation of HDAC6. The test is classed as cell-based.
In test [22] the target is Protein cereblon/Protein deacetylase HDAC6 (Homo sapiens) (UniProt Q9UBN7+Q96SW2). As to the kind of experiment: PROTAC activity at CRBN/HDAC6 in human K562 cells assessed as degradation of HDAC6 relative to control. The test is classed as cell-based.
The subject of the next test is MV4-11. The experiment in a line: Induction of cell cycle arrest in human MV4-11 cells assessed as accumulation of cells at G2/M phase measured after 12 hrs. Format: functional, cell-based. As to conditions: MV4-11, 12 h.

pEC50, pIC50: −log10 of the molar value.

T3 sequence (P34152 whole entry, looked up): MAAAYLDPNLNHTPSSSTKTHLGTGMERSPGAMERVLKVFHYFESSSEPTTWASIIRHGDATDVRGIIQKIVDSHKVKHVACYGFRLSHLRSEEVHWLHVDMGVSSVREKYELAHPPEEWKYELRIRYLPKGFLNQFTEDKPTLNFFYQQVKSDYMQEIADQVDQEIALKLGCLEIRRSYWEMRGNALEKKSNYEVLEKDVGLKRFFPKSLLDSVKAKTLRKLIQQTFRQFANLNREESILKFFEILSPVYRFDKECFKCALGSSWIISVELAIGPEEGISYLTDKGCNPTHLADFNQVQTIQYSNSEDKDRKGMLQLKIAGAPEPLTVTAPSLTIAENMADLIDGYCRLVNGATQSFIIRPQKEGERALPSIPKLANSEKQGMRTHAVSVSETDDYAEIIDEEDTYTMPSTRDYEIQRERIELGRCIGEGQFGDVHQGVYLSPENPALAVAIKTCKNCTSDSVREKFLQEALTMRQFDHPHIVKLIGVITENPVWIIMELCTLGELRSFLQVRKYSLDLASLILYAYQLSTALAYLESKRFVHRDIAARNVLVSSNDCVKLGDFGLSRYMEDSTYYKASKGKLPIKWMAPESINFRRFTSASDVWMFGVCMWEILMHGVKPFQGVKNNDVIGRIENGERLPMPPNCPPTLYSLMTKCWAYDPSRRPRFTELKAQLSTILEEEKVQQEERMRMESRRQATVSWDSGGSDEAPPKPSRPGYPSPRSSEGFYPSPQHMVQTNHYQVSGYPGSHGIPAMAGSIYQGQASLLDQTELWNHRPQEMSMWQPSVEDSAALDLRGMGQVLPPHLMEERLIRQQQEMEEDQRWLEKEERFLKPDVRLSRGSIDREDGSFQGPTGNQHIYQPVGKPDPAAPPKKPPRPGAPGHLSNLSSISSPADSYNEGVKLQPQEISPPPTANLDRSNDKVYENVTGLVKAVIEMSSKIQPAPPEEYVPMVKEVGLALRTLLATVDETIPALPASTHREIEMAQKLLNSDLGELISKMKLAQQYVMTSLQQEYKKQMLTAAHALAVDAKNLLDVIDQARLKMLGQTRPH
T3 sequence (P40338 whole entry, looked up): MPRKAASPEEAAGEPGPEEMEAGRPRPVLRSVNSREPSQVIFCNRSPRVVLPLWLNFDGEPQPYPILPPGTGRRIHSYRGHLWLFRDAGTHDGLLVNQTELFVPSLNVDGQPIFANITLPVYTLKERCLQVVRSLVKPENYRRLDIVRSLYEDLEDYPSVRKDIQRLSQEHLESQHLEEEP
Chain of Peptidyl-prolyl cis-trans isomerase FKBP1A (P62942 whole entry): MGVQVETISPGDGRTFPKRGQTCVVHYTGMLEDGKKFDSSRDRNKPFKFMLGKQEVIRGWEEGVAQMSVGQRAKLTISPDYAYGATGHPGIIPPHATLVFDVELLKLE

`Cc1ncsc1-c1ccc(C(C)NC(=O)C2CC(O)CN2C(=O)C(NC(=O)COCCOCCOCCOCCNC(=O)c2ccc(CN3CCN(S(=O)(=O)c4ccc(NC(=S)NCc5ccccc5)cc4)CC3)cc2)C(C)(C)C)cc1` (centres undefined): the TGI (usually the reduction of tumour growth relative to the control group) in [1] is 80%. Also, the maximum response (Emax) (commonly the size of the effect at its maximum, as opposed to the concentration needed) in test [2] is 90%. Besides, the negative logarithm of the EC50 (pEC50) (usually the EC50 on a negative log10 scale, so that one unit is a factor of ten) in [3] was 8.15. The negative-log IC50 (pIC50) (as a rule, the IC50 on a negative log10 scale, so that one unit is a factor of ten) in [4] was 8.02.
On Aurora kinase A, `COc1cc(Nc2ncc3c(n2)-c2ccc(Cl)cc2C(c2c(F)cccc2OC)=NC3)ccc1C(=O)NCCOCCOCCNC(=O)COc1cccc2c1C(=O)N(C1CCC(=O)NC1=O)C2=O` (centres undefined) had a negative logarithm of the EC50 (pEC50) of 7.55.
Take `COC1C[C@H](C[C@@H](C)[C@@H]2CC(=O)C(C)/C=C(\C)[C@@H](O)[C@@H](OC)C(=O)[C@H](C)C[C@H](C)/C=C/C=C/C=C(\C)[C@@H](OC)C[C@@H]3CC[C@@H](C)[C@](O)(O3)C(=O)C(=O)N3CCCC[C@H]3C(=O)O2)CCC1OCCOCc1cn(CCOCCOCCNc2cccc3c2C(=O)N(C2CCC(=O)NC2=O)C3=O)nn1` (some centres undefined): the pEC50 in [5] is 9.57.
As to `CNC(=O)c1ccccc1Nc1cc(Nc2ccc(N3CCN(CC(=O)N[C@H](C(=O)N4C[C@H](O)C[C@H]4C(=O)N[C@@H](C)c4ccc(-c5scnc5C)cc4)C(C)(C)C)CC3)cc2OC)ncc1C(F)(F)F`, the values for the Emax in test [6] and in [7] were 85% and 60%, respectively.
`CCN(c1cc(-c2ccc(CN3CCN(C(=O)CCCCCCCC(=O)N[C@H](C(=O)N4C[C@H](OCc5ccccc5)C[C@H]4C(=O)NCc4ccc(-c5scnc5C)cc4)C(C)(C)C)CC3)cc2)cc(C(=O)NCc2c(C)cc(C)[nH]c2=O)c1C)C1CCOCC1`: the pIC50 in [8] was 7.89. Also, the GI50 (as a rule, the concentration that inhibits growth by half) in [9] was above 10000 nM.
For the molecule `C[C@H](CC(=O)N1CCC(O)(Cn2cnc3c(-c4ccc(CN)cc4)n(C)nc3c2=O)CC1)c1ccccc1`, the negative logarithm of the IC50 (pIC50) (in test [10]; in the test on JeKo-1) was below 4.70 in each case.
With `Cc1cc(C)c(CNC(=O)c2cc(-c3ccc(N4CCN(CCNC(=O)CCOCCNc5cccc6c5C(=O)N(C5CCC(=O)NC5=O)C6=O)CC4)nc3)cc3c2cnn3C(C)C)c(=O)[nH]1` (centres undefined), the pIC50 in test [8] was 8.15. Besides, the Emax in [11] was determined as 82%; in test [13] it was 68%. The pEC50 is 5.82 in test [12] and 6.70 in test [14].
For `C[C@H](CC(=O)N1CCC(O)(Cn2cnc3c(-c4ccc(CNCCCCCCCCCCCNc5cccc6c5C(=O)N(C5CCC(=O)NC5=O)C6=O)cc4)n(C)nc3c2=O)CC1)c1ccccc1` (some centres undefined), the negative-log IC50 (pIC50) in [10] was 5.93; in the test with JeKo-1, 5.99. The same molecule had a pEC50 in [15] of 7.48.
For the molecule `CCN(c1cc(-c2ccc(CN3CCN(C(=O)CCCCCCCC(=O)N[C@H](C(=O)N4C[C@H](O)C[C@H]4C(=O)NCc4ccc(-c5scnc5C)cc4)C(C)(C)C)CC3)cc2)cc(C(=O)NCc2c(C)cc(C)[nH]c2=O)c1C)C1CCOCC1`, the negative-log EC50 (pEC50) in test [16] is 6.85. In addition, the GI50 in test [17] turned out to be 1400 nM; in test [18] it was 1700 nM.
`Cc1ncsc1-c1ccc(CNC(=O)[C@@H]2C[C@@H](O)CN2C(=O)[C@@H](NC(=O)CCOCCOc2ccc(Nc3ncc(C(F)(F)F)c(NCc4cccc(N(C)S(C)(=O)=O)c4)n3)cc2)C(C)(C)C)cc1` showed a pEC50 at Focal adhesion kinase 1 [19] of 8.52. Also, the Emax at Focal adhesion kinase 1 [20] was 99%.
On to `O=S(=O)(c1ccc(NC(=S)NCc2cccnc2)cc1)N1CCN(Cc2ccccc2)CC1`, for which, in test [1], the TGI is reported as 40%.
On to `O=C(CCCO/N=C1/C(=C2/C(=O)N(Cc3cn(CCOCCNc4cccc5c4C(=O)C(N4CCC(=O)NC4=O)C5=O)nn3)c3ccccc32)Nc2ccccc21)NO` (centres undefined), for which the negative logarithm of the EC50 (pEC50) in test [21] was 6.96. In addition, in [22], the maximal response (Emax) was determined as 88%.
For `COc1cc(Nc2ncc3c(n2)-c2ccc(Cl)cc2C(c2c(F)cccc2OC)=NC3)ccc1C(=O)O` [ALISERTIB], the negative logarithm of the IC50 (pIC50) in the test on MV4-11 is 8.92.
